Experimental data: US9718819B2 (Merck Sharp & Dohme Corp., priority 2012, dated 2017)

molecular target: HIV-1 RT wild-type enzyme (Human immunodeficiency virus type 1 group M subtype B (isolate HXB2) (HIV-1), UniProt P04585); test: HIV-1 reverse transcriptase inhibitory activity (RT polymerase assay); assay type: biochemical; conditions: HIV-1 RT wild-type enzyme 83 pM; RNA-dependent DNA polymerase activity; read-out: IC50
Description: Determination of HIV-1 Reverse Transcriptase Inhibitory Activity
The heterodimeric nucleic acid substrate used in the HIV-1 RT polymerase reactions was generated by annealing the DNA primer, biotinylated pD500 (Sigma Aldrich, USA, 5′-biotin-ttg aaa tga ctg cgg tac ggc-3′), SEQ ID NO. 1 to the nucleotide RNA template t500 (derived from hepatitis C virus [HCV] sequence, IBA, Germany, 5′-[…]-3′), SEQ ID NO 2). […] The mixture was then preincubated on an orbital shaker for 30 min at room temperature in microtiter plates (Costar 3365, Corning, USA). A polymerization reaction was initiated by the addition of RNA template/pD500 DNA primer hybrid (16.6 nM final of RNA/DNA hybrid) and dNTPs (2 μM dATP, dGTP, dCTP and 66.6 nM Ru-dUTP (Meso Scale Discovery, USA)). Plate was sealed and incubated for 5-10 min at room temperature on an orbital shaker. Plate was then incubated for 90 min at 37° C. and reactions quenched with 60 μl quenching buffer (50 mM EDTA, 0.7% BSA, 0.7% Tween-20, 0.017% sodium azide in PBS). The resulting solution was incubated at room temperature for an additional 5 min and then 50 μL was transferred to pre-blocked Avidin plates (L15AA, Meso Scale Discovery). Each well of Avidin plate was blocked for 1 h at room temperature with 100 μL 5% BSA in PBS. Blocking solution was removed by tapping vigorously on filter paper to remove all excess liquid. Reaction on pre-blocked avidin plate proceeded for 60 min at room temperature and then contents removed by tapping vigorously on filter paper to remove all excess liquid. After washing plate 3 times with 150 μL 1×PBS and blotting dry between cycles, 150 μL 1× Read Buffer T (4× Read Buffer T, Meso Scale Discovery) was added and incubated for 5 min at room temperature before counting on a Sector Imager […] (Meso Scale Discovery). Titration curves and IC50 values were calculated using a four parameter logisitc fit according to standard procedures. Briefly, % Inhibition=100×((sample raw value)−(mean value of the low control or 0% inhibition))/((mean value of wells representing 100% inhbition)−(mean value of 0% inhbition)). In this assay, low control wells contain DMSO (0% inhbition) and 100% inhibition wells contain 1 μM efavirenz.

**Q.** Which IC50 does the source give for `N#Cc1cc(Cl)cc(Oc2c(C(F)(F)F)ncn(Cc3cc(-c4cccc(F)c4)c(=O)[nH]n3)c2=O)c1` [Example 26, 3-chloro-5-((1-((5(3-fluorophenyl)-6-oxo-1,6-dihydropyridazin-3-yl)methyl)-6-oxo-4-(trifluoromethyl)-1,6-dihydropyrimidin-5-yl)oxy)benzonitrile] here?
**A.** 5 nM

**Q.** With `N#Cc1cc(Cl)cc(Oc2c(C(F)(F)F)ncn(Cc3cc(-c4cc(F)cc(Cl)c4)c(=O)[nH]n3)c2=O)c1` [Example 27, 3-chloro-5-((1-((5-(3-chloro-5-fluorophenyl)-6-oxo-1,6-dihydropyridazin-3-yl)methyl)-6-oxo-4-(trifluoromethyl)-1,6-dihydropyrimidin-5-yl)oxy)benzonitrile] as the compound, how does the IC50 read?
**A.** 14 nM

**Q.** Which IC50 does the source give for `N#Cc1cc(Cl)cc(Oc2c(C(F)(F)F)ncn(Cc3cc(-c4ccc(Cl)cc4)c(=O)[nH]n3)c2=O)c1` [Example 28, 3-chloro-5-((1-((5-(4-chlorophenyl)-6-oxo-1,6-dihydropyridazin-3-yl)methyl)-6-oxo-4-(trifluoromethyl)-1,6-dihydropyrimidin-5-yl)oxy)benzonitrile] here?
**A.** 5 nM

**Q.** For `N#Cc1cc(Cl)cc(Oc2c(C(F)(F)F)ncn(Cc3cc(-c4ccc(F)c(F)c4)c(=O)[nH]n3)c2=O)c1` [Example 29, 3-chloro-5-((1-((5-(3,4-difluorophenyl)-6-oxo-1,6-dihydropyridazin-3-yl)methyl)-6-oxo-4-(trifluoromethyl)-1,6-dihydropyrimidin-5-yl)oxy)benzonitrile], which IC50 is on record?
**A.** 3 nM

**Q.** How did the IC50 turn out when `N#Cc1cc(Cl)cc(Oc2c(C(F)(F)F)ncn(Cc3cc(-c4ccc(OC(F)F)cc4)c(=O)[nH]n3)c2=O)c1` [Example 30, 3-chloro-5-((1-((5-(4-(difluoromethoxy)phenyl)-6-oxo-1,6-dihydropyridazin-3-yl)methyl)-6-oxo-4-(trifluoromethyl)-1,6-dihydropyrimidin-5-yl)oxy)benzonitrile] was run?
**A.** 4 nM

**Q.** Which IC50 does the source give for `Cc1ccc(-c2cc(Cn3cnc(C(F)(F)F)c(Oc4cc(Cl)cc(C#N)c4)c3=O)n[nH]c2=O)cc1` [Example 31, 3-chloro-5-((6-oxo-1-((6-oxo-5-(p-tolyl)-1,6-dihydropyridazin-3-yl)methyl)-4-(trifluoromethyl)-1,6-dihydropyrimidin-5-yl)oxy)benzonitrile] here?
**A.** 5 nM

**Q.** With `CC(C)Oc1ccc(-c2cc(Cn3cnc(C(F)(F)F)c(Oc4cc(Cl)cc(C#N)c4)c3=O)n[nH]c2=O)cc1F` [Example 32, 3-chloro-5-((1-((5-(3-fluoro-4-isopropoxyphenyl)-6-oxo-1,6-dihydropyridazin-3-yl)methyl)-6-oxo-4-(trifluoromethyl)-1,6-dihydropyrimidin-5-yl)oxy)benzonitrile] as the compound, how does the IC50 read?
**A.** 13 nM

**Q.** How did the IC50 turn out when `N#Cc1cc(Cl)cc(Oc2c(C(F)(F)F)ncn(Cc3cc(-c4cc(F)cc(F)c4)c(=O)[nH]n3)c2=O)c1` [Example 33, 3-chloro-5-((1-((5-(3,5-difluorophenyl)-6-oxo-1,6-dihydropyridazin-3-yl)methyl)-6-oxo-4-(trifluoromethyl)-1,6-dihydropyrimidin-5-yl)oxy)benzonitrile] was run?
**A.** 7 nM

**Q.** For `N#Cc1cc(Cl)cc(Oc2c(C(F)(F)F)ncn(Cc3cc(-c4ccc(F)c(Cl)c4)c(=O)[nH]n3)c2=O)c1` [Example 34, 3-chloro-5-((1-((5-(3-chloro-4-fluorophenyl)-6-oxo-1,6-dihydropyridazin-3-yl)methyl)-6-oxo-4-(trifluoromethyl)-1,6-dihydropyrimidin-5-yl)oxy)benzonitrile], which IC50 is on record?
**A.** 7 nM

**Q.** Which IC50 does the source give for `N#Cc1cc(Cl)cc(Oc2c(C(F)(F)F)ncn(Cc3cc(-c4ccc(F)cc4F)c(=O)[nH]n3)c2=O)c1` [Example 35, 3-chloro-5-((1-((5-(2,4-difluorophenyl)-6-oxo-1,6-dihydropyridazin-3-yl)methyl)-6-oxo-4-(trifluoromethyl)-1,6-dihydropyrimidin-5-yl)oxy)benzonitrile] here?
**A.** 8 nM
